Test results published in patent US7133717B2, “Tissue electroperforation for enhanced drug delivery and diagnostic sampling” (Johnson & Johnson Consumer Companies, Inc., priority 1999, dated 2006).

Columns and labels:
Assay type in all cases: in vivo
Conditions in all cases: two pigs
[1] = Electroperforation (25 pores/cm^2) followed by passive diffusion of erythropoietin for transdermal delivery, plasma erythropoietin by ELISA
Method: (§1) To evaluate the pore transport pathway created through the stratum corneum of the skin by electroperforation, an in vivo experiment was conducted on the back skin of Yorkshire pigs (female, ˜12 kg) using an electrosurgery apparatus (Surgitron™, Ellman International, Inc., Hewlett, N.Y.). The pigs were immobilized with appropriate anesthetics and analgesics. Electrofulguration current was used with a fine wire electrode (0.26 mm in diameter) and power output setting at between scale 3 to 10. A small pore was created on the surface of the skin by carefully moving the electrode towards the skin until the tip of the electrode almost touched the skin. The electrode was quickly moved away from the skin as soon as an electric arc appeared in the gap between the electrode tip and the skin surface.
An electroperforation procedure was conducted in two pigs similar to that in Example 3, followed by passive diffusion of erythropoietin (20 kU/ml, Procrit®, Ortho Biotech, Inc., Raritan, N.J.) at the treatment site. There were 25 pores/cm^2 generated with electroperforation on each pig. The drug chamber based over the electroperforation-treated skin area contained 0.5 ml of erythropoietin solution. Blood samples were collected for erythropoietin analysis with an ELISA method. The erythropoietin delivery procedure was carried out for 7 hours. […]

pigs [2] = assay: Electroperforation (39 pores/cm^2) followed by passive diffusion of insulin for transdermal delivery, blood glucose monitoring
Method: as §1
The electroperforation procedure described in Example 1 was conducted in two pigs with a pore density of 39 pores/cm^2 of the skin and subsequently followed by transdermal insulin delivery with passive diffusion. An insulin-containing chamber was immediately placed onto the electroperforation-treated skin. […] Blood glucose of the pigs was monitored by obtaining blood samples of the ear vein, which were analyzed using two blood glucose analyzers separately to assure the accuracy (One Touch® Basic, LifeScan, Inc., Milpitas, Calif.).

pigs [3] = assay: Electroperforation (9 pores/cm^2) followed by passive diffusion and iontophoresis of insulin for transdermal delivery, blood glucose monitoring
Method: as §1
An electroperforation procedure was conducted in two pigs similar with a pore density of 9 pores/cm^2 on the skin and subsequently was followed by transdermal insulin delivery. The purpose of using a lower pore density in this experiment was to examine the effect of pore number (e.g., the extent of the transport pathway available) to transdermal insulin delivery. The same insulin-containing chamber and drug application procedures were used in this experiment as those in the Example 2. […]

Row | Substance | plasma erythropoietin concentrations ([1]; one day after the delivery experiment) | plasma erythropoietin concentration ([1]; passive diffusion, 0.5 ml of 20 kU/ml solution, during the 7 hour delivery until chambers removed) | blood glucose reduction (pigs [2]; 0.5 ml insulin solution 100 U/ml, contact area 2.3 cm^2) | blood glucose levels (pigs [2]; from the onset of insulin delivery) | blood glucose reduction (pigs [3]; during iontophoresis, 4 mA DC, two 30-minute sections at 1.5 hour and 3 hour) | blood glucose levels (pigs [3]; first 1.5 hours, passive diffusion only)
1 | erythropoietin | still above the endogenous basal level | progressive increase |  |  |  | 
2 | insulin |  |  | greater than 50 % of the basal level | declined rather quickly | rapid blood glucose reduction | did not decline
